How the values were obtained:
Type in all cases: in vivo
[1] = system: Diabrotica balteata (Corn root worm); assay: Diabrotica balteata (Corn root worm) larval mortality, artificial diet in 24-well MTP; conditions: 120 h, application rate 200 ppm (concentration in well 18 ppm), L2 larvae, larval mortality after 5 days
[2] = system: Myzus persicae (Green peach aphid); assay: Myzus persicae (Green peach aphid) mortality, sprayed sunflower leaf discs; conditions: foliar, 144 h, 200 ppm spray on sunflower leaf discs, mixed ages, mortality 6 DAT
[3] = system: Myzus persicae (Green peach aphid); assay: Myzus persicae (Green peach aphid) mortality, test compounds mixed with Sucrose solution under Parafilm; conditions: 120 h, 12.5 ppm in Sucrose solution, infested pea seedlings on Parafilm, mortality 5 days after infestation
[4] = system: Plutella xylostella (Diamond back moth); assay: Plutella xylostella (Diamond back moth) larval mortality, artificial diet in 24-well MTP; conditions: 144 h, application rate 200 ppm (concentration in well 18 ppm), L2 larvae, larval mortality after 6 days
[5] = system: Spodoptera littoralis (Egyptian cotton leafworm); assay: Spodoptera littoralis (Egyptian cotton leafworm) mortality, sprayed cotton leaf discs; conditions: foliar, 72 h, 200 ppm spray on cotton leaf discs, L1 larvae, mortality 3 DAT
[6] = system: Tetranychus urticae (Two-spotted spider mite); assay: Tetranychus urticae (Two-spotted spider mite) mortality, sprayed bean leaf discs; conditions: foliar, 192 h, 200 ppm spray on bean leaf discs, mixed ages, egg, larval and adult mortality after 8 days
[7] = system: Thrips tabaci (Onion thrips); assay: Thrips tabaci (Onion thrips) mortality, sprayed sunflower leaf discs; conditions: foliar, 168 h, 200 ppm spray on sunflower leaf discs, mixed ages, mortality after 7 days

CCN(C(=O)c1ccc(F)cc1F)c1cccc(C(=O)Nc2c(Br)cc(C(F)(C(F)(F)F)C(F)(F)F)cc2OC(F)F)c1F [Compound 109]
≥ 80%: pest or weed control at 200 ppm [1] | pest or weed control at 200 ppm [2] | pest or weed control at 12.5 ppm [3] | pest or weed control at 200 ppm [4] | pest or weed control at 200 ppm [5] | pest or weed control at 200 ppm [6] | pest or weed control at 200 ppm [7]

CCN(C(=O)c1ccccc1)c1cccc(C(=O)Nc2c(Cl)cc(C(F)(C(F)(F)F)C(F)(F)F)cc2OC(F)F)c1F [Compound 119]
≥ 80%: pest or weed control at 200 ppm [1] | pest or weed control at 200 ppm [2] | pest or weed control at 12.5 ppm [3] | pest or weed control at 200 ppm [4] | pest or weed control at 200 ppm [5] | pest or weed control at 200 ppm [6] | pest or weed control at 200 ppm [7]

CCN(C(=O)c1ccc(F)cc1)c1cccc(C(=O)Nc2c(Cl)cc(C(F)(C(F)(F)F)C(F)(F)F)cc2OC(F)F)c1F [Compound 120]
≥ 80%: pest or weed control at 200 ppm [1] | pest or weed control at 200 ppm [2] | pest or weed control at 12.5 ppm [3] | pest or weed control at 200 ppm [4] | pest or weed control at 200 ppm [5] | pest or weed control at 200 ppm [6] | pest or weed control at 200 ppm [7]

CCN(C(=O)c1ccc(F)cc1Cl)c1cccc(C(=O)Nc2c(Cl)cc(C(F)(C(F)(F)F)C(F)(F)F)cc2OC(F)F)c1F [Compound 122]
≥ 80%: pest or weed control at 200 ppm [1] | pest or weed control at 200 ppm [2] | pest or weed control at 12.5 ppm [3] | pest or weed control at 200 ppm [4] | pest or weed control at 200 ppm [5] | pest or weed control at 200 ppm [6] | pest or weed control at 200 ppm [7]

CCN(C(=O)c1ccc(F)cc1)c1cccc(C(=O)Nc2c(Br)cc(C(F)(C(F)(F)F)C(F)(F)F)cc2OC(F)F)c1F [Compound 128]
≥ 80%: pest or weed control at 200 ppm [1] | pest or weed control at 200 ppm [2] | pest or weed control at 12.5 ppm [3] | pest or weed control at 200 ppm [4] | pest or weed control at 200 ppm [5] | pest or weed control at 200 ppm [6] | pest or weed control at 200 ppm [7]

CCN(C(=O)c1ccc([N+](=O)[O-])cc1Cl)c1cccc(C(=O)Nc2c(Br)cc(C(F)(C(F)(F)F)C(F)(F)F)cc2OC(F)F)c1OC [Compound 135]
≥ 80%: pest or weed control at 200 ppm [1] | pest or weed control at 200 ppm [2] | pest or weed control at 12.5 ppm [3] | pest or weed control at 200 ppm [4] | pest or weed control at 200 ppm [5] | pest or weed control at 200 ppm [6] | pest or weed control at 200 ppm [7]

CCN(C(=O)c1ccc(F)cc1)c1cccc(C(=O)Nc2c(Br)cc(C(F)(C(F)(F)F)C(F)(F)F)cc2OC(F)F)c1OC [Compound 139]
≥ 80%: pest or weed control at 200 ppm [1] | pest or weed control at 200 ppm [2] | pest or weed control at 12.5 ppm [3] | pest or weed control at 200 ppm [4] | pest or weed control at 200 ppm [5] | pest or weed control at 200 ppm [6] | pest or weed control at 200 ppm [7]

CCN(C(=O)c1ccc(F)cc1Cl)c1cccc(C(=O)Nc2c(Br)cc(C(F)(C(F)(F)F)C(F)(F)F)cc2OC(F)F)c1OC [Compound 141]
≥ 80%: pest or weed control at 200 ppm [1] | pest or weed control at 200 ppm [2] | pest or weed control at 12.5 ppm [3] | pest or weed control at 200 ppm [4] | pest or weed control at 200 ppm [5] | pest or weed control at 200 ppm [6] | pest or weed control at 200 ppm [7]

CCN(C(=O)c1ccc(F)cc1)c1cccc(C(=O)Nc2c(Cl)cc(C(F)(C(F)(F)F)C(F)(F)F)cc2OC(F)F)c1OC [Compound 156]
≥ 80%: pest or weed control at 200 ppm [1] | pest or weed control at 200 ppm [2] | pest or weed control at 12.5 ppm [3] | pest or weed control at 200 ppm [4] | pest or weed control at 200 ppm [5] | pest or weed control at 200 ppm [6] | pest or weed control at 200 ppm [7]

CCN(C(=O)c1ccc(F)cc1Cl)c1cccc(C(=O)Nc2c(Cl)cc(C(F)(C(F)(F)F)C(F)(F)F)cc2OC(F)F)c1OC [Compound 158]
≥ 80%: pest or weed control at 200 ppm [1] | pest or weed control at 200 ppm [2] | pest or weed control at 12.5 ppm [3] | pest or weed control at 200 ppm [4] | pest or weed control at 200 ppm [5] | pest or weed control at 200 ppm [6] | pest or weed control at 200 ppm [7]

CCN(C(=O)c1ccc([N+](=O)[O-])cc1)c1cccc(C(=O)Nc2c(Br)cc(C(F)(C(F)(F)F)C(F)(F)F)cc2OC(F)F)c1OC [Compound 162]
≥ 80%: pest or weed control at 200 ppm [1] | pest or weed control at 200 ppm [2] | pest or weed control at 12.5 ppm [3] | pest or weed control at 200 ppm [4] | pest or weed control at 200 ppm [5] | pest or weed control at 200 ppm [6] | pest or weed control at 200 ppm [7]
